Measured values published in US20150284342A1, “BIS(FLUOROALKYL)-1,4-BENZODIAZEPINONE COMPOUNDS” (BRISTOL-MYERS SQUIBB COMPANY, priority 2011, published 2015).

What was measured:
[1] = test system: human tumor xenografts; assay: Human Tumor Xenograft Models in Mice (various tumors); assay type: in vivo; details: for Antitumor Activity (% TGI): PO, QD × 15, 10 day-on-2 day-off, 5-10 mg/kg/adm
[2] = test system: Notch 3; assay: Notch-CBF1 Transactivation Assay (Notch 3); assay type: cell-based; details: HeLa cells, luciferase, rounded to 2 digits, read-out: Notch 3 (IC50)
Excerpt: (§1) Table 12 denotes respective DNA quantity for the transfections.
(§2) Duplicates were used for each sample.

[3] = test system: TALL1 Human T-cell acute lymphoblastic leukemia; assay: Human tumor xenograft model in mice: TALL1; assay type: in vivo
[4] = test system: human T-ALL leukemia xenografts HPB-ALL; assay: Human tumor xenograft model in mice: HPB-ALL (combination with dexamethasone); assay type: in vivo; details: for Tumor Growth Delay / Tumor Growth Delay (LCK): target tumor size 3000 mg
[5] = High Throughput (HT) Metabolic Stability Panel, human liver microsomes; details: human, microsomes, 10 min, 0.5 µM, pH 7.4
Method: (§3) Each compound was tested in duplicate.

[6] = test system: MDA-MB-468 Human Breast Carcinoma; assay: Human tumor xenograft model in mice: MDA-MB-468 (combination with paclitaxel); assay type: in vivo; details: for Tumor Growth Delay / Tumor Growth Delay (LCK): target tumor size 500 mg
[7] = test system: ER receptor positive human breast carcinoma xenograft MCF7; assay: Human tumor xenograft model in mice: MCF7 (combination with Tamoxifen); assay type: in vivo; details: for Tumor Growth Inhibition TGI: target tumor size 500 mg
[8] = test system: Notch 1; assay: Notch-CBF1 Transactivation Assay (Notch 1); assay type: cell-based; details: HeLa cells, luciferase, rounded to 2 digits, read-out: Notch 1 (IC50)
Excerpt: as §1, §2

[9] = test system: human ovarian teratocarcinoma xenograft PA-1; assay: Human tumor xenograft model in mice: PA-1 (combination with carboplatin); assay type: in vivo
[10] = test system: ALL-SIL T-cell lymphoblastic leukemia; assay: Human tumor xenograft model in mice: ALL-SIL (combination with dasatinib); assay type: in vivo; details: for Tumor Growth Delay / Tumor Growth Delay (LCK): target tumor size 1000 mg
[11] = High Throughput (HT) Metabolic Stability Panel, mouse liver microsomes; details: mouse, microsomes, 10 min, 0.5 µM, pH 7.4
Method: as §3

[12] = test system: human breast carcinoma cell line MDA-MB-157; assay: Human tumor xenograft model in mice: MDA-MB-157; assay type: in vivo
[13] = 7.5-10 mg/kg, oral, QD × 15, 10 Day-on-2 Day-off
[14] = Example 1 3.75 mg/kg PO, QD x 3, weekly x 3
[15] = Example 1 […] PO, QD x 3, weekly x 3
[16] = Example 1 3.75 mg/kg PO, QD x 3, weekly x 7
[17] = Example 1 […] PO, QD x 3, weekly x 7
[18] = Example 1 3.75 mg/kg PO, QD ×3, weekly ×3
[19] = Example 1 1 mg/kg PO, QD x 21, target tumor size 500 mg

Structure (SMILES): CN1C(=O)[C@@H](NC(=O)[C@H](CCC(F)(F)F)[C@H](CCC(F)(F)F)C(N)=O)N=C(c2ccccc2)c2ccccc21 [Example 1, (2R,3S)—N-((3S)-1-Methyl-2-oxo-5-phenyl-2,3-dihydro-1H-1,4-benzodiazepin-3-yl)-2,3-bis(3,3,3-trifluoropropyl)succinamide]
- Antitumor Activity (% TGI) ([1]; BT-474, HER2+ breast cancer): 96 % TGI
- Antitumor Activity (% TGI) ([1]; Calu-6, Non small cell lung cancer): 81 % TGI
- Antitumor Activity (% TGI) ([1]; G292, osteogenic sarcoma): 75 % TGI
- Antitumor Activity (% TGI) ([1]; HCT116, colon cancer): 75 % TGI
- Antitumor Activity (% TGI) ([1]; MCF7i, estrogen-independent breast cancer): 63 % TGI
- Antitumor Activity (% TGI) ([1]; Pat-21/Abx R, TN breast cancer (abx R)): 73 % TGI
- Antitumor Activity (% TGI) ([1]; Pat-24, pancreatic cancer): 111 % TGI
- Antitumor Activity (% TGI) ([1]; Pat-26, pancreatic cancer): 93 % TGI
- Antitumor Activity (% TGI) ([1]; Pat-34, ovarian cancer): 89 % TGI
- Antitumor Activity (% TGI) ([1]; Pat-50, ovarian cancer): 91 % TGI
- Antitumor Activity (% TGI) ([1]; SK-N-AS, neuroblastoma): 67 % TGI
- Antitumor Activity (% TGI) ([1]; U-87, glioblastoma multiforme (GBM)): 82 % TGI
- antitumor activity ([1]; oral administration (PO)): showed antitumor activity
- human cancer xenografts in which significant antitumor activity was demonstrated ([1]; xenografts grown in mice): 16
- IC50 [2]: 3.4 nM
- Antitumor Activity TALL1 (LCK) [3, 13]: >4.7 LCK
- Antitumor Activity (% TGI) ([3]; TALL1, T-Cell acute lymphoblastic leukemia, PO, QD × 15, 10 day-on-2 day-off, 5-10 mg/kg/adm): 112 % TGI
- antitumor activity ([3]; intravenous route (IV), FIG. 6: TALL1, 5 mg/kg/adm, QD×3, IV): exhibited antitumor activity
- CR (%) [4, 14]: 0%
- PR (%) [4, 14]: 0%
- Tumor Growth Delay [4, 14]: 7.8 days
- Tumor Growth Delay (LCK) [4, 14]: 0.9 LCK
- Tumor Growth Delay [4, 15]: 9.5 days
- Tumor Growth Delay (LCK) [4, 15]: 1.1 LCK
- antitumor efficacy (LCK) ([4]; Example 1 as a single agent at 7.5 mpk): 1.1 LCK
- 0.5 μM HLM (% Remaining) [5]: 97%
- CR (%) [6, 16]: 0%
- PR (%) [6, 16]: 0%
- Tumor Growth Delay [6, 16]: 7.8 days
- Tumor Growth Delay (LCK) [6, 16]: 0.5 LCK
- Tumor Growth Delay [6, 17]: 21.2 days
- Tumor Growth Delay (LCK) [6, 17]: 1.4 LCK
- Antitumor Activity (% TGI) ([6]; MDA-MB468, TN breast cancer, single agent, PO, QD × 15, 10 day-on-2 day-off, 5-10 mg/kg/adm): 91 % TGI
- Antitumor Activity MDA-MB-468 (% TGI) ([6]; single agent, 7.5-10 mg/kg, oral, QD × 15, 10 Day-on-2 Day-off): 78 % TGI
- CR (%) [7, 18]: 0%
- PR (%) [7, 18]: 0%
- Tumor Growth Inhibition TGI [7, 18]: 43%
- Tumor Growth Inhibition TGI ([7]; Example 1 […] PO, QD ×3, weekly ×3): 58%
- Antitumor Activity (% TGI) ([7]; MCF7, estrogen-dependent breast cancer, single agent, PO, QD × 15, 10 day-on-2 day-off, 5-10 mg/kg/adm): 73 % TGI
- CR or PR ([7]; single agent): no CR or PR
- IC50 [8]: 1.6 nM
- CR (%) ([9]; Example 1 1 mg/kg PO, QD x 21): 0%
- Cure (%) ([9]; Example 1 1 mg/kg PO, QD x 21): 0%
- PR (%) ([9]; Example 1 1 mg/kg PO, QD x 21): 0%
- Tumor Growth Delay [9, 19]: 4 days
- Tumor Growth Delay (LCK) [9, 19]: 0.2 LCK
- antitumor effect (LCK) ([9]; Example 1 as a single agent, 1 mg/kg/adm): 0.2 LCK
- CR (%) [10, 16]: 0%
- PR (%) [10, 16]: 0%
- Tumor Growth Delay [10, 16]: 8.7 days
- Tumor Growth Delay (LCK) [10, 16]: 0.5 LCK
- Tumor Growth Delay [10, 17]: 1.9 days
- Tumor Growth Delay (LCK) [10, 17]: 0.1 LCK
- complete response (CR) ([10]; single agent): none of the single agent produced CR
- 0.5 μM MsLM (% Remaining) [11]: 91%
- Antitumor Activity MDA-MB-157 (% TGI) [12, 13]: 89 % TGI
- Antitumor Activity (% TGI) ([12]; MDA-MB157, TN breast cancer, PO, QD × 15, 10 day-on-2 day-off, 5-10 mg/kg/adm): 81 % TGI
